Assay results reported in PMC11915835, “Enhancing the solubility of SARS-CoV-2 inhibitors to increase future prospects for clinical development” (Journal of Virology, 2025).

The substances below were run against SARS-CoV-2 S D614G (Severe acute respiratory syndrome coronavirus 2, UniProt P0DTC2, D614G). Conditions: read-out: IC90, inhibition of S-mediated cell–cell fusion, SARS-CoV-2 D614G.
Assay type: cell-based

Substance | IC90
Ac-DISQINASVVNIEYEIKKLEEVAKKLEESLIDLQEL-NH2 [QE] | 70 ± 10 nM
Ac-PDVDLGDISQINASVVNIEYEIKKLEEVAKKLEESLIDLQEL-NH2 [QE-EXT] | 90 ± 20 nM
Ac-SIDQINATFVDIEYEIKKLEEVAKKLEESYIDLKEL-NH2 [SK] | 96 ± 20 nM
